Experiment in all cases: NCI tumour cell line growth inhibition, 48 h
The subject of experiment [1] is SN12C renal.
Experiment [2] deals with SF-295 CNS.
Experiment [3] concerns NCI-H23 lung.
Experiment [4] relates to SNB-19 CNS.
The subject of experiment [5] is HOP-62 NSCLC.
The test system of experiment [6] is CAKI-1 renal.
The test system of experiment [7] is OVCAR-5 ovarian.
Experiment [8] concerns SR leukemia.
In experiment [9] the test system is SK-MEL-28 melanoma.
The subject of experiment [10] is SK-OV-3 ovarian.

Structures are written as SMILES. Values joined by “and” are separate entries in the source; they are usually repeats but may differ in a detail not shown here. Equal entries are not always repeated.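 Method: 48-hour compound exposure of cells in 96-well plates, five concentrations, linear interpolation of endpoints. At the GI50, growth is halved. Definition used: TGI = concentration required for complete inhibition of growth.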

`CCN(CC)CCNc1ccc(CO)c2sc3ccccc3c(=O)c12`: the GI50 in experiment [1] is 6.55 µM [middle of 4 runs]; in experiment [2], 2.98 µM and 5.31 µM; in experiment [3], 3.14 µM and 13.6 µM; in [4], 3.54 µM and 13.3 µM and 14.1 µM; in experiment [6], 3.03 µM; in [7], 5.05 µM. The GI50 in [8] and in experiment [9] was 2.29 µM throughout. The TGI in experiment [1] is 20 µM [middle of 4 runs]; in [2] it was 21.1 µM [middle of 4 runs]; in [3], 16.4 µM and 22.7 µM and 29.3 µM; in [4], 29.1 µM [middle of 4 runs]; in experiment [5] it was 26 µM [middle of 4 runs]; in experiment [6] it was 26.4 µM [middle of 4 runs]. In addition, in experiment [7], the TGI was 25.1 µM [middle of 4 runs].
As to `CC(C)NCCCNC1=C(Cl)C(=O)c2ccccc2C1=O`, the GI50 in [1] is 1.89 µM; in [3], 1.88 µM; in experiment [4], 12.8 µM; in [5] it was 13.8 µM; in experiment [6], 5.83 µM; in [7] it was 14.3 µM. Also, the GI50 in experiment [10] was 15.8 µM; in [8] it was 2.27 µM; in [9] it was 2.16 µM. The TGI in experiment [1] was 3.93 µM; in experiment [3], 4.56 µM; in [4], 26 µM; in [5] it was 27.4 µM; in experiment [6], 20.9 µM; in [7] it was 31.1 µM. In addition, the TGI in experiment [10] was determined as 29.4 µM; in experiment [8], 6.08 µM; in [9], 3.92 µM.
Take `CN1CCN(c2ccc3nc(-c4ccc5nc(-c6ccc(C(F)(F)F)cc6)[nH]c5c4)[nH]c3c2)CC1`: the GI50 in experiment [1] is 1.9 µM; in experiment [2], 2.44 µM; in experiment [3], 1.71 µM; in [5], 1.63 µM; in experiment [6], 2.97 µM; in experiment [7], 2.68 µM. In addition, the GI50 in experiment [8] is 1.7 µM; in [9], 1.77 µM. For the same molecule, the TGI is 3.96 µM in experiment [1]; 9.51 µM in experiment [2]; 3.5 µM in experiment [3]; 3.42 µM in experiment [5]; 15.7 µM in [6]; 6.58 µM in [7]. Also, the TGI amounted to 5.11 µM in experiment [8] and 3.34 µM in [9].
Consider `CO/N=C(\COc1ccc2c(=O)cc(-c3ccccc3)oc2c1)c1ccc(OC)cc1`, for which the GI50 in experiment [1] is 88.2 µM; in experiment [2], 21 µM; in experiment [3], more than 100 µM; in experiment [5], more than 100 µM; in experiment [6] it was 24.9 µM; in experiment [7] it was more than 100 µM. For the same molecule, the GI50 in experiment [10], in experiment [8] and in [9] was more than 100 µM in each case. Moreover, the TGI in [1] is more than 100 µM; in experiment [2], 46.5 µM; in experiment [3] it was more than 100 µM; in [5] it was more than 100 µM; in experiment [6], 70.3 µM; in experiment [7], more than 100 µM. Further, the TGI in [10], in [8] and in [9] was more than 100 µM throughout.
As for `CN1CCN(c2ccc(NC3=C(Cl)C(=O)c4ncccc4C3=O)cc2C(F)(F)F)CC1`, the GI50 was 1.79 µM in experiment [1]; 16.6 µM in experiment [2]; 1.87 µM in experiment [3]; 13.6 µM in experiment [4]; 17.4 µM in experiment [5]; 1.72 µM in experiment [6]. Moreover, the GI50 was 2.2 µM in [7], 0.355 µM in [8] and 1.99 µM in experiment [9]. The TGI was found to be 3.31 µM in [1]; 30.4 µM in [2]; 3.87 µM in [3]; 26.8 µM in [4]; 37.1 µM in experiment [5]; 3.13 µM in experiment [6]. Also, the TGI in experiment [7] came out at 5.14 µM; in [8], 3.66 µM; in experiment [9], 3.45 µM.
For the molecule `CC(=O)N1C(=O)C(=O)c2cc(Cl)ccc21`, the TGI in experiment [1], in experiment [2], in [3], in experiment [4], in experiment [7] and in experiment [10] was more than 100 µM throughout. Also, the TGI in experiment [8] and in experiment [9] was more than 100 µM throughout.
With `O=C(CN1C(=O)c2ccccc2C1=O)OC1C=CCCC1` (configuration not stated), the TGI in [1], in experiment [4], in experiment [5], in experiment [6], in [10] and in experiment [8] was more than 100 µM throughout. Besides, the TGI in experiment [9] is more than 100 µM.
As to `COc1ccc2c3c([nH]c2c1[N+](=O)[O-])C(C)N(C(=O)/C=C/c1ccccc1)CC3` (configuration not stated), the TGI was more than 100 µM in [1]; 5.88 µM in experiment [2]; more than 100 µM in experiment [3]; more than 100 µM in [4]; 70.4 µM in experiment [5]; more than 100 µM in experiment [6]. Further, the TGI in [7], in experiment [8] and in experiment [9] was more than 100 µM in each case.
Turning to `COc1ccc(/C=C2/CCOC2=O)cc1`, the GI50 in experiment [1], in experiment [3], in experiment [4], in [5], in [7] and in experiment [10] was more than 100 µM throughout. The GI50 in experiment [8] and in experiment [9] was more than 100 µM in each case. Besides, the TGI in experiment [1], in [3], in [4], in experiment [5], in [7] and in experiment [10] was more than 100 µM in each case. In addition, the TGI in [8] and in experiment [9] was more than 100 µM in each case.
In the case of `O=C1c2ccccc2C(=O)N1C/C=N/NS(=O)(=O)c1ccc(Cl)cc1`, the TGI in experiment [1], in experiment [2], in experiment [3], in experiment [4], in experiment [5] and in experiment [6] was more than 100 µM in each case. Also, the TGI in experiment [8] is more than 100 µM.

The record behind these values is PubChem BioAssay (NCI).
